The record followed here is patent publication US20260364184A1, “COMPOUND BASED ON OXOISOINDOLINYL-SUBSTITUTED TETRAHYDROPYRIMIDINE-DIONE AND USE THEREOF” (GLUETACS THERAPEUTICS (SHANGHAI) CO., LTD., priority 2023, published 2026).

The structures appear in SMILES notation.

What all share (assay type): cell-based
For one assay, the target named is T1, ALK (Homo sapiens, UniProt Q9UM73).
T1 construct: known EML4-ALK variant 3 fusion, ALK kinase part unmutated), Western blot
The assay can be described thus: Western blot degradation of ALK. Particulars: H2228 Cell; 24 hours. Here is the method: (§1) Conventional Western blot assay was performed to evaluate the effects of the compounds of the present disclosure on the expression of target proteins in cells.
(§2) (1) Cell Seeding and Protein Harvesting: The selected cells were processed according to the cell seeding procedure and protein harvesting procedure in Table II-2.
(§3) (2) To the collected supernatant, 5×SDS sample loading buffer was added, followed by denaturation at 95 °C for 5 minutes. The denatured samples were then separated by SDS-PAGE electrophoresis on a polyacrylamide gel. Proteins were transferred to a nitrocellulose membrane (0.45 μm NC membrane), blocked with blocking buffer at room temperature for 1 hour, and subjected to antibody incubation and development procedures according to the antibody manufacturer's instructions (Cell Signaling Technology).
(§4) Half-Maximal Degradation Concentration value (the drug concentration required for degrading proteins by 50%, abbreviated as DC50) reads method: comparing the grayscale values of Western blot bands from drug-treated samples with those from blank DMSO-treated controls, and identifying the drug concentration range at which the grayscale value is half that of the DMSO-treated control bands.
(§5) DC50 values can be calculated using ImageJ software to measure grayscale values of Western blot bands from drug-treated samples. The concentration-response curve is fitted to estimate the drug concentration corresponding to half the grayscale value.
(§6) Target protein remaining (%) refers to the percentage of target protein remaining in cells after treatment with protein degrader compounds.
(§7) Calculation method for target protein remaining (%): Use ImageJ software to measure grayscale values of Western blot bands from drug (protein degrader)-treated samples. The grayscale value of drug-treated bands is divided by that of internal control protein bands, and the resulting quotient is normalized to obtain the relative percentage of remaining target protein after protein degrader treatment.
(§8) Target protein degradation rate (%)=1−target protein remaining (%).

Assay [1] concerns Human T lymphocytic leukemia cell line (Jurkat). The assay can be described thus: Inhibition of Jurkat cell proliferation (CellTiter luminescent viability). Particulars: Homo sapiens, Table IF3, AR inhibitor-based, 96 hours.
Assay [2] deals with Human acute lymphocytic leukemia T lymphocytes cell line (CCRF-CEM). The assay can be described thus: Inhibition of CCRF-CEM cell proliferation (CellTiter luminescent viability). Particulars: Homo sapiens, 96 h, Table IF2, AR inhibitor-based.
Assay [3] deals with Human diffuse large B-cell lymphoma cell line (TMD8). The assay can be described thus: Inhibition of TMD8 cell proliferation (CellTiter luminescent viability). As to conditions: Homo sapiens, TMD8, 96 h, Table IF1, AR inhibitor-based.
For another assay, the target named is T2, AR (Homo sapiens, UniProt P10275).
T2 construct: expression of target proteins in cells; endogenous in cells
T2 sequence (P10275 1-920): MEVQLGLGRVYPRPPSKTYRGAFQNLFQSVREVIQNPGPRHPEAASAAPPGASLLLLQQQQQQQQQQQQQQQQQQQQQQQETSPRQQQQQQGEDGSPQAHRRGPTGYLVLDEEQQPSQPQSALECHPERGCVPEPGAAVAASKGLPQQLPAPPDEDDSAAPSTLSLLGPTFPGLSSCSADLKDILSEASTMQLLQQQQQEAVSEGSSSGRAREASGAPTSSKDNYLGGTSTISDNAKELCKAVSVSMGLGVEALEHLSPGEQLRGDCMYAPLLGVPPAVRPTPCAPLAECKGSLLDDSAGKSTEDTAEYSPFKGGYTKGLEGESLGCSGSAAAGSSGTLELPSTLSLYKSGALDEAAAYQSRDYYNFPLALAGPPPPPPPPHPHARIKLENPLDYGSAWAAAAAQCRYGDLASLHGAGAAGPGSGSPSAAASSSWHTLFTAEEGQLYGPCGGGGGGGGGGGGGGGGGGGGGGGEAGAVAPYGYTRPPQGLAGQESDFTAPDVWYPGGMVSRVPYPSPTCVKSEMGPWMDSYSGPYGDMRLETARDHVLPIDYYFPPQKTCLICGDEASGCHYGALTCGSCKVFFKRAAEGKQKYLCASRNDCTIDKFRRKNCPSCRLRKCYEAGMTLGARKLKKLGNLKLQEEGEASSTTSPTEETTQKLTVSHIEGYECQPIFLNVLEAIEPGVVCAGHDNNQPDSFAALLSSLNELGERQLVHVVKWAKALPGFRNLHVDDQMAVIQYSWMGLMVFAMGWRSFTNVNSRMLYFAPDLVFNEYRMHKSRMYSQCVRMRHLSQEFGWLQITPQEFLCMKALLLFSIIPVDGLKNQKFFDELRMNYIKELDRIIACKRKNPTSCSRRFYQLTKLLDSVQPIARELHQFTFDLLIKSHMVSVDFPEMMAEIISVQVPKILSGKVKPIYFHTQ
The assay can be described thus: Western blot degradation of AR. As to conditions: LnCap Cell; 24 hours. The procedure:
as §1, §2, §3, §4, §5, §6, §7, §8
For orientation: In western blotting, separated proteins are transferred to a membrane and probed.

Assay [4] has as its system Human large cell immunoblastic lymphoma cell line SR. The assay can be described thus: Inhibition of SR cell proliferation (CellTiter luminescent viability). As to conditions: Table IB1, ALK inhibitor-based, 96 hours, read-out: Inhibitory activity (IC50, nM) on tumor cell proliferation, SR. The essentials:
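Cells are seeded in 96-well plates, cultured at 37 °C, 5% CO2, and treated next day with 5-fold serial compound dilutions (stock series from 2000 μM; 0.5 μL into 100 μL medium). Viability is read by CellTiter-Meiluncell luminescence after the set exposure, and IC50 is taken from growth-inhibition curves.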

[5] abbreviates: 10 nM, read-out: Inhibition Rate at 10 nM (%).
Where [6] appears, read: 500 nM, read-out: Inhibition Rate at 500 nM (%).

T1 sequence (Q9UM73 19-1620): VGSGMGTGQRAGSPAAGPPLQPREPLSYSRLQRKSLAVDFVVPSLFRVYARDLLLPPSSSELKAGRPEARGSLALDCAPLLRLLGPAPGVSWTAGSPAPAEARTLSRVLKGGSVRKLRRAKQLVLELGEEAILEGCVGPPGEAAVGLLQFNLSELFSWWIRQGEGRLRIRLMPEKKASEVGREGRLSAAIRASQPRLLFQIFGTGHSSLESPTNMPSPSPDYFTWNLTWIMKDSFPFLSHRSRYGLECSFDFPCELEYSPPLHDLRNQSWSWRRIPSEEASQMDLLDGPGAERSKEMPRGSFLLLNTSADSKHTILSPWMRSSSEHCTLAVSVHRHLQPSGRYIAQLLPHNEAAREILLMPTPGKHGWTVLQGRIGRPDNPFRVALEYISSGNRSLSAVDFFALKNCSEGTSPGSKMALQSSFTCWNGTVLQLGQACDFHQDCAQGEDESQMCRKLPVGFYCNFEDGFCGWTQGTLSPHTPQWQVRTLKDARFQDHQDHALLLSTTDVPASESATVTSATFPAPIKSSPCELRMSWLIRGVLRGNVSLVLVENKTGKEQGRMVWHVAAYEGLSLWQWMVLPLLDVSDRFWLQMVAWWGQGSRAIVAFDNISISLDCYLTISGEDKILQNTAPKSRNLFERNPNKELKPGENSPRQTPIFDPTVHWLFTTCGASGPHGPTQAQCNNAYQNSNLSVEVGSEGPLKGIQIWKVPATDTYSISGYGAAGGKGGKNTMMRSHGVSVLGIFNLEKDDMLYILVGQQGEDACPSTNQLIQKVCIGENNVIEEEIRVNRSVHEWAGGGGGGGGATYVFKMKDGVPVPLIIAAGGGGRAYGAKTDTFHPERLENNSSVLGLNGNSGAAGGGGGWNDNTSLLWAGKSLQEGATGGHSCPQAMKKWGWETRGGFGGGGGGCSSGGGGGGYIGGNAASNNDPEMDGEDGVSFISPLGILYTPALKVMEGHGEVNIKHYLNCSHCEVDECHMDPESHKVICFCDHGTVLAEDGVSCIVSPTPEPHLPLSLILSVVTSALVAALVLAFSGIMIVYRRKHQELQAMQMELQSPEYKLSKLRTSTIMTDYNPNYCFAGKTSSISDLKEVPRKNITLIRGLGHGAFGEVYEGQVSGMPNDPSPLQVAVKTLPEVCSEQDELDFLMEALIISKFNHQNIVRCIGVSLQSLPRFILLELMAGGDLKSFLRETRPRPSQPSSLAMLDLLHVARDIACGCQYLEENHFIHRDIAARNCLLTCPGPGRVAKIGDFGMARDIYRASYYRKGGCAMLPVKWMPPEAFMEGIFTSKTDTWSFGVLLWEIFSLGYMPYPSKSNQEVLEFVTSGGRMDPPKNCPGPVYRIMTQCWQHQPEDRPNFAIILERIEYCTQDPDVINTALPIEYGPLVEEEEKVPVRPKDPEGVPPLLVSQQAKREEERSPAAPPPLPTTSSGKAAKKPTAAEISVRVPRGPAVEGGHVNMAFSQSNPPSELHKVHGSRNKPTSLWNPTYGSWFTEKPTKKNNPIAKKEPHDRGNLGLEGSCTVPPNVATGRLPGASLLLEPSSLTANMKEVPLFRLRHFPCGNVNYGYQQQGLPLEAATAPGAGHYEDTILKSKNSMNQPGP
T1 sequence (Q96SW2 whole entry partner, the tested form may be a part): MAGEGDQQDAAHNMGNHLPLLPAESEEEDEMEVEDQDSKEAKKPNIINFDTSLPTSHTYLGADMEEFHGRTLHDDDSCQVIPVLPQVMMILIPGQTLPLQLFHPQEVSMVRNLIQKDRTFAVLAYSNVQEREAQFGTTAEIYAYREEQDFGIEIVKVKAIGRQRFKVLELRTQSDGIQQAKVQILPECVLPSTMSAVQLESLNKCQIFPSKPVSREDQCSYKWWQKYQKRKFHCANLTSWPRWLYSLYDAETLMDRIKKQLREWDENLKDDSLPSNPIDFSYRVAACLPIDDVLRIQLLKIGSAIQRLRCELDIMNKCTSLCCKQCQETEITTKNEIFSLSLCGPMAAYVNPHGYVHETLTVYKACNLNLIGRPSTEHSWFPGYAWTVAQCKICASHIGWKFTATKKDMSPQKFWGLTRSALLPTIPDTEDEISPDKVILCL

Consider `COc1cc(N2CCC(N(C)Cc3ccc4c(c3)C(=O)N(N3CCC(=O)NC3=O)C4=O)CC2)ccc1Nc1ncc(Cl)c(Nc2ccccc2P(C)(C)=O)n1` [GT-04660, 5-(((1-(4-((5-chloro-4-((2-(dimethylphosphoryl)phenyl)amino)pyrimidin-2-yl)amino)-3-methoxyphenyl)piperidin-4-yl)(methyl)amino)methyl)-2-(2,4-dioxotetrahydropyrimidin-1(2H)-yl)isoindoline-1,3-dione], for which, at ALK, the “Degradation of substrate protein ALK (substrate protein remaining %)” value was “A (0%≤substrate protein remaining %≤80%)”.

With `CCc1cc2c(cc1N1CCC(N3CCN(Cc4ccc5c(c4)C(=O)N(N4CCC(=O)NC4=O)C5=O)CC3)CC1)C(C)(C)c1[nH]c3cc(C#N)ccc3c1C2=O` [GT-04661, 8-(4-(4-((2-(2,4-dioxotetrahydropyrimidin-1(2H)-yl)-1,3-dioxoisoindolin-5-yl)methyl)piperazin-1-yl)piperidin-1-yl)-9-ethyl-6,6-dimethyl-11-oxo-6,11-dihydro-5H-benzo[b]carbazole-3-carbonitrile], the “Degradation of substrate protein ALK (substrate protein remaining %)” value on ALK is “A (0%≤substrate protein remaining %≤80%)”.

As to `CC1(C)[C@H](NC(=O)c2ccc(N3CCC(CN4C5CCC4CN(c4ccc6c(c4)C(=O)N(N4CCC(=O)NC4=O)C6=O)C5)CC3)nc2)C(C)(C)[C@H]1Oc1ccc(C#N)c(Cl)c1` [GT-05826, N-((1r,3r)-3-(3-chloro-4-cyanophenoxy)-2,2,4,4-tetramethylcyclobutyl)-6-(4-((3-(2-(2,4-dioxotetrahydropyrimidin-1(2H)-yl)-1,3-dioxoisoindolin-5-yl)-3,8-diazabicyclo[3.2.1]octan-8-yl)methyl)piperidin-1-yl)nicotinamide], the inhibition at 0.01 µM is 20 to 30% in assay [1] (setting [5]); 20 to 30% in assay [2] (setting [5]); 25 to 30% in assay [3] (TMD8, 10 nM, read-out: Inhibition Rate at 10 nM (%)). Moreover, the inhibition at 0.5 µM in assay [1] (setting [6]) lay in the range of 40 to 60%; in assay [2] (setting [6]) it was 40 to 60%; in assay [3] (TMD8, 500 nM, read-out: Inhibition Rate at 500 nM (%)), 40 to 60%. For the same molecule, the “Degradation of substrate protein AR (substrate protein remaining %)” value on AR is recorded as “A (0%≤substrate protein remaining %≤80%)”.

With `CCc1cc2c(cc1N1CCC(N3CCN(Cc4ccc5c(c4)CN(N4CCC(=O)NC4=O)C5=O)CC3)CC1)C(C)(C)c1[nH]c3cc(C#N)ccc3c1C2=O` [GT-06822, 8-(4-(4-((2-(2,4-dioxotetrahydropyrimidin-1(2H)-yl)-1-oxoisoindolin-5-yl)methyl)piperazin-1-yl)piperidin-1-yl)-9-ethyl-6,6-dimethyl-11-oxo-6,11-dihydro-5H-benzo[b]carbazole-3-carbonitrile], the IC50 in assay [4] was in the range of 10 to 50 nM. For the same molecule, the “Degradation of substrate protein ALK (substrate protein remaining %)” value at ALK is “A (0%≤substrate protein remaining %≤80%)”.

Consider `CCc1cc2c(cc1N1CCC(N3CCN(CC4CCN(c5ccc6c(c5)C(=O)N(N5CCC(=O)NC5=O)C6=O)CC4)CC3)CC1)C(C)(C)c1[nH]c3cc(C#N)ccc3c1C2=O` [GT-06823, 8-(4-(4-((1-(2-(2,4-dioxotetrahydropyrimidin-1(2H)-yl)-1,3-dioxoisoindolin-5-yl)piperidin-4-yl)methyl)piperazin-1-yl)piperidin-1-yl)-9-ethyl-6,6-dimethyl-11-oxo-6,11-dihydro-5H-benzo[b]carbazole-3-carbonitrile], for which, in assay [4], the IC50 was in the range of 10 to 50 nM. In addition, the “Degradation of substrate protein ALK (substrate protein remaining %)” value at ALK is “A (0%≤substrate protein remaining %≤80%)”.

Take `CCc1cc2c(cc1N1CCC(N3CCN(CC4CCN(c5cccc6c5C(=O)N(N5CCC(=O)NC5=O)C6=O)CC4)CC3)CC1)C(C)(C)c1[nH]c3cc(C#N)ccc3c1C2=O` [GT-07298, 8-(4-(4-((1-(2-(2,4-dioxotetrahydropyrimidin-1(2H)-yl)-1,3-dioxoisoindolin-4-yl)piperidin-4-yl)methyl)piperazin-1-yl)piperidin-1-yl)-9-ethyl-6,6-dimethyl-11-oxo-6,11-dihydro-5H-benzo[b]carbazole-3-carbonitrile]: the IC50 in assay [4] is 10 to 50 nM. For the same molecule, the “Degradation of substrate protein ALK (substrate protein remaining %)” value on ALK was “A (0%≤substrate protein remaining %≤80%)”.

For `CCc1cc2c(cc1N1CCN(Cc3ccc4c(c3)C(=O)N(N3CCC(=O)NC3=O)C4=O)CC1)C(C)(C)c1[nH]c3cc(C#N)ccc3c1C2=O` [GT-07320, 8-(4-((2-(2,4-dioxotetrahydropyrimidin-1(2H)-yl)-1,3-dioxoisoindolin-5-yl)methyl)piperazin-1-yl)-9-ethyl-6,6-dimethyl-11-oxo-6,11-dihydro-5H-benzo[b]carbazole-3-carbonitrile], the IC50 in assay [4] lay in the range of 100 to 300 nM. Also, the “Degradation of substrate protein ALK (substrate protein remaining %)” value at ALK is reported as “A (0%≤substrate protein remaining %≤80%)”.

In the case of `CCc1cc2c(cc1N1CCN(CC3CCN(c4ccc5c(c4)C(=O)N(N4CCC(=O)NC4=O)C5=O)CC3)CC1)C(C)(C)c1[nH]c3cc(C#N)ccc3c1C2=O` [GT-07321, 8-(4-((1-(2-(2,4-dioxotetrahydropyrimidin-1(2H)-yl)-1,3-dioxoisoindolin-5-yl)piperidin-4-yl)methyl)piperazin-1-yl)-9-ethyl-6,6-dimethyl-11-oxo-6,11-dihydro-5H-benzo[b]carbazole-3-carbonitrile], the IC50 in assay [4] was in the range of 50 to 100 nM. Besides, the “Degradation of substrate protein ALK (substrate protein remaining %)” value at ALK is listed as “A (0%≤substrate protein remaining %≤80%)”.

For `CCc1cc2c(cc1N1CCN(CC3CCN(c4cccc5c4C(=O)N(N4CCC(=O)NC4=O)C5=O)CC3)CC1)C(C)(C)c1[nH]c3cc(C#N)ccc3c1C2=O` [GT-07322, 8-(4-((1-(2-(2,4-dioxotetrahydropyrimidin-1(2H)-yl)-1,3-dioxoisoindolin-4-yl)piperidin-4-yl)methyl)piperazin-1-yl)-9-ethyl-6,6-dimethyl-11-oxo-6,11-dihydro-5H-benzo[b]carbazole-3-carbonitrile], the IC50 in assay [4] is 10 to 50 nM. Moreover, the “Degradation of substrate protein ALK (substrate protein remaining %)” value on ALK is listed as “A (0%≤substrate protein remaining %≤80%)”.

For `COc1cc(N2CCC(CN3CC4CCC(C3)N4c3ccc4c(c3)C(=O)N(N3CCC(=O)NC3=O)C4=O)CC2)ccc1Nc1ncc(Cl)c(Nc2ccccc2P(C)(C)=O)n1` [GT-08530, 5-(3-((1-(4-((5-chloro-4-((2-(dimethylphosphoryl)phenyl)amino)pyrimidin-2-yl)amino)-3-methoxyphenyl)piperidin-4-yl)methyl)-3,8-diazabicyclo[3.2.1]octan-8-yl)-2-(2,4-dioxotetrahydropyrimidin-1(2H)-yl)isoindoline-1,3-dione], the “Degradation of substrate protein ALK (substrate protein remaining %)” value on ALK was “A (0%≤substrate protein remaining %≤80%)”.

The inhibition is the percentage by which the read-out fell short of the control.
